From patent publication US8173428B2, “LNA oligonucleotides and the treatment of cancer” (Santaris Pharma A/S, priority 2004, dated 2012)
Oligonucleotides are written 5' to 3', each unit as a sugar letter and its base; * is a phosphorothioate linkage, no mark a phosphodiester; rarer units and linkages stand in square brackets, end groups in braces. Plain capitals give the bases only. l = locked nucleic acid (LNA); [5mC] = 5-methylcytosine; d = 2'-deoxy (DNA)

Assays:
[1] = tested on: complementary RNA; test: Measurement of melting temperature (Tm) of the duplex; assay type: binding; conditions: 3 μM, 10 mM sodium phosphate/100 mM NaCl/0.1 nM EDTA, pH 7.0
Method: Measurement of melting temperature (Tm) of the compounds: A 3 μM solution of SEQ ID NO. 2 in 10 mM sodium phosphate/100 mM NaCl/[…], pH 7.0 was mixed with its complement DNA/RNA 3 μM in 10 mM sodium phosphate/100 mM NaCl/[…], pH 7.0 at 90° C. for a minute and allowed to cool to room temperature. The Tm of the duplex was then determined by increasing the temperature 1° C./min. from 25 to 95° C. The Tm of SEQ ID NO.

[2] = Stability in human plasma; assay type: in vitro ADME; conditions: 20 μM, 37° C., up to 96 hours
Method: Stability of 20 μM SEQ ID NO. 2 and SEQ ID NO. 24 in human and mouse plasma (Li-Heparine (Taconic, M&B)) at 37° C. at different time aliquots: 0, 1, 2, 4, 24, 48 and 96 hours. A commercially available ladder was also included (10 and 20 mer are visible on the PAGE). (see FIG. 1)

[3] = tested on: Bcl-2 mRNA; test: Bcl-2 mRNA expression by real-time PCR in 15PC3 cells; assay type: cell-based, human
Method: To determine the relative Survivin mRNA level in oligonucleotide treated and untreated cells, the generated cDNA was used in quantitative PCR analysis using an iCycler from BioRad. The cDNA was diluted 5-fold and 8 μl was mixed with 52 μl Taqman probe master mix containing 30 μl Platinum Quantitative PCR SuperMix UDG 2×PCR master mix (Invitrogen), 3 μl 20× Taqman probe and primer mix (forward primer: 5′[…] (SEQ ID NO:29), final 0.9 μM. Reverse primer: 5′[…] (SEQ ID NO:30), final 0.6 μM and taqman probe: FAM-[…]-TAMRA (SEQ ID NO:31), final 0.1 μM) and 19 μl H2O. The 60 μl were dispersed in two wells (96 well plates) with 25 μl in each well. For human Bcl-2 the PCR primers were:
forward primer: 5′ […] 3′ (final concentration in the assay; 0.6 μM) (SEQ ID NO: 32) reverse primer: 5′ […] 3′ (final concentration in the assay; 0.6 μM) (SEQ ID NO: 33) and the PCR probe was: 5′ FAM-[…]-TAMRA 3′ (final concentration in the assay; 0.1 μM) (SEQ ID NO: 34). […]
The primers and probe were obtained from […] (France). To normalize any variance in sample preparation, the endogenous GAPDH mRNA was quantified using a pre-developed Taqman assay reagent from Applied Biosystems (4310884E) according to manufacturer's Instructions. […] Relative quantities of Survivin mRNA were determined from the calculated threshold cycle using the iCycler IQ Real Time Detection System software.

[4] = tested on: mice; test: i.v. acute toxicity study in mice; assay type: in vivo
Text: For SEQ ID NO. 2 the following was found among others in preclinical toxicity studies: […]

[5] = tested on: cynomolgus monkeys; test: i.v. MTD study in cynomolgus monkeys; assay type: in vivo; conditions: dose escalation up to 160 mg/kg×3 (total 930 mg/kg) or 120 mg/kg×5 over 2 weeks
Method: The animals were treated with either a dose escalating design with a maximum dose of 160 mg/kg×3 (total dose of 930 mg/kg) or a 120 mg/kg×5 over 2 weeks.

5′-^MeCsTs^MeCsAsastscscsastsgsgs^MeCsAsGsc-3′ (l[5mC]*lT*l[5mC]*lA*dA*dT*dC*dC*dA*dT*dG*dG*l[5mC]*lA*lG*dC) [SEQ ID NO. 2]
Tm (° C.) complementary RNA [1]: 75.3 °C | Stability in human plasma (degradation products) [2]: No degradation products | Bcl-2 mRNA expression ([3]; 10 nM, 24 hours, 15PC3 cells, single agent or combined with control oligonucleotides): have effects on Survivin and Bcl-2 expression | Bcl-2 down-regulation ([3]; summary statement, conditions not given): down-regulation of Bcl-2 | maximum non-lethal dose [4]: 1000 mg/kg | clinical signs [5]: no notable clinical signs | liver and kidney toxicity [5]: evidence of liver and kidney toxicity was apparent in all animals
